# Laboratory results as given in patent US8835464B2, “Triazole compounds that modulate HSP90 activity” (Synta Pharmaceuticals Corp., priority 2006, dated 2014).
# Where a name gives a salt, the structure may show the parent alone. Read-outs that look alike come from different tables or passages of the source.
# Key:
# Hsp90 = assay: IC50 of compounds of the invention, Example B Method 2 (Tables 6-9); format: cell-based, human; conditions: Her2 degradation / inhibition of Hsp90, Method 2: MV-4-11 cells, 72 hours, Cell Counting Kit-8
# Her2 = assay: Degradation of Her2 in BT-474 cells, Western blot (Method 1); format: cell-based, human; conditions: 0.5 μM, overnight, positive control
# Procedure: Human high-Her2 breast carcinoma BT474 (HTB-20), SK-BR-3 (HTB-30) and MCF-7 breast carcinoma (HTB-22) from American Type Culture Collection, VA, USA were grown in Dulbecco's modified Eagle's medium with 4 mM L-glutamine and antibiotics ([…] penicillin and 100 ug/ml streptomycine; GibcoBRL). To obtain exponential cell growth, cells were trypsinized, counted and seeded at a cell density of 0.5×10^6 cells/ml regularly, every 3 days. All experiments were performed on day 1 after cell passage.
# BT-474 cells are treated with 0.5 μM, 2 μM, or 5 μM of 17AAG (a positive control) or 0.5 μM, 2 μM, or 5 μM of a compound of the invention overnight in DMEM medium. After treatment, each cytoplasmic sample is prepared from 1×10^6 cells by incubation of cell lysis buffer (#9803, cell Signaling Technology) on ice for 10 minutes. The resulting supernatant used as the cytosol fractions is dissolved with sample buffer for SDS-PAGE and run on a SDS-PAGE gel, blotted onto a nitrocellulose membrane by using semi-dry transfer. Non-specific binding to nitrocellulose is blocked with 5% skim milk in TBS with 0.5% Tween at room temperature for 1 hour, then probed with anti-Her2/ErB2 mAb (rabbit IgG, #2242, Cell Signaling) and anti-Tubulin (T9026, Sigma) as housekeeping control protein. […]
compound,measurement,setting,value
"CC(C)c1cc(-c2nn(C(=O)CN)c(=O)n2-c2ccc3c(ccn3C)c2)c(OC(=O)CN)cc1OC(=O)CN [Compound 15b, 4-(1-(2-aminoacetyl)-4-(1-methyl-1H-indol-5-yl)-5-oxo-4,5-dihydro-1H-1,2,4-triazol-3-yl)-6-isopropyl-1,3-phenylene bis(2-aminoacetate) trihydrochloride]",IC50,"Hsp90; Table 8, read-out: IC50",79 nM
"CC(C)c1cc(-c2nnc(Nc3ccccc3)n2-c2ccc3c(ccn3C)c2)c(O)cc1O [Compound 1a, 4-Isopropyl-6-[4-(1-methyl-1H-indol-5-yl)-5-phenylamino-4H-[1,2,4]triazol-3-yl]-benzene-1,3-diol]",IC50,"Hsp90; Table 7, read-out: IC50",1400 nM
"CCc1cc(-c2nnc(S)n2-c2cccc3ccccc23)c(OC(=O)c2ccccc2)cc1OC(=O)c1ccccc1 [Compound 4b, 4-ethyl-6-(5-mercapto-4-(naphthalen-1-yl)-4H-1,2,4-triazol-3-yl)-1,3-phenylene dibenzoate]",IC50,"Hsp90; Table 8, read-out: IC50",> 2000 nM
"C=CCNC1=C2C[C@@H](C)C[C@H](OC)[C@H](O)[C@@H](C)/C=C(\C)[C@H](OC(N)=O)[C@@H](OC)/C=C\C=C(/C)C(=O)NC(=CC1=O)C2=O [Compound 17AAG, 17-allylamino-17-demethoxygeldanamycin]",degradation of Her2,Her2,partial degradation
"CC(C)c1cc(-c2nnc(NC(=O)c3ccc(F)c(F)c3)n2-c2ccc3c(ccn3C)c2)c(O)cc1O [Compound 17a, N-(5-(2,4-dihydroxy-5-isopropylphenyl)-4-(1-methyl-1H-indol-5-yl)-4H-1,2,4-triazol-3-yl)-3,4-difluorobenzamide]",IC50,"Hsp90; Table 7, read-out: IC50",1680 nM
"CC(C)c1cc(-c2nnc(O)n2-c2ccc(N(C)S(C)(=O)=O)cc2)c(O)cc1O [Compound 17d, N-(4-(3-(2,4-dihydroxy-5-isopropylphenyl)-5-hydroxy-4H-1,2,4-triazol-4-yl)phenyl)-N-methylmethanesulfonamide]",IC50,"Hsp90; Table 9, read-out: IC50 Range",85 nM
"COCCC(=O)n1ccc2cc(-n3c(O)nnc3-c3cc(C(C)C)c(O)cc3O)ccc21 [Compound 11b, 3-(2,4-dihydroxy-5-isopropylphenyl)-4-(1-(3-methoxypropanoyl)-1H-indol-5-yl)-1H-1,2,4-triazol-5(4H)-one]",IC50,"Hsp90; Table 8, read-out: IC50",< 100 nM
"CC(C)c1cc(-c2nnc(O)n2-c2ccc(N(C)C)nc2)c(O)cc1O [Compound 7d, 4-(4-(6-(dimethylamino)pyridin-3-yl)-5-hydroxy-4H-1,2,4-triazol-3-yl)-6-isopropylbenzene-1,3-diol dihydrochloride]",IC50,"Hsp90; Table 9, dihydrochloride, read-out: IC50 Range",47 nM
"Cc1ccc(-n2c(O)nnc2-c2cc(C(C)C)c(O)cc2O)cc1S(=O)(=O)N(C)C [Compound 11d, 5-(3-(2,4-dihydroxy-5-isopropylphenyl)-5-hydroxy-4H-1,2,4-triazol-4-yl)-N,N,2-trimethylbenzenesulfonamide]",IC50,"Hsp90; Table 9, read-out: IC50 Range",93 nM
"CC(C)c1cc(-c2nnc(NC(=O)C3CCCC3)n2-c2ccc3c(ccn3C)c2)c(O)cc1O [Compound 20a, N-(5-(2,4-dihydroxy-5-isopropylphenyl)-4-(1-methyl-1H-indol-5-yl)-4H-1,2,4-triazol-3-yl)cyclopentanecarboxamide]",IC50,"Hsp90; Table 7, read-out: IC50",5920 nM
"CCNC(=O)Sc1nnc(-c2ccc(OC(=O)N(C)C)cc2OC(=O)N(C)C)n1-c1cccc2ccccc12 [Compound 6b, 4-(5-(ethylcarbamoylthio)-4-(naphthalen-1-yl)-4H-1,2,4-triazol-3-yl)-1,3-phenylene bis(dimethyl carbamate)]",IC50,Hsp90; Table 8,> 100000 nM
"CC(=O)n1ccc2cc(-n3c(O)nnc3-c3cc(C(C)C)c(O)cc3O)ccc21 [Compound 9b, 1-(5-(3-(2,4-dihydroxy-5-isopropylphenyl)-5-hydroxy-4H-1,2,4-triazol-4-yl)-1H-indol-1-yl)ethanone]",IC50,"Hsp90; Table 8, read-out: IC50",40 nM
"CC(C)c1cc(-c2nnc(O)n2-c2cccc(S(=O)(=O)N(C)CCN(C)C)c2)c(O)cc1O [Compound 10d, 3-(3-(2,4-dihydroxy-5-isopropylphenyl)-5-hydroxy-4H-1,2,4-triazol-4-yl)-N-(2-(dimethylamino)ethyl)-N-methylbenzenesulfonamide]",IC50,"Hsp90; Table 9, read-out: IC50 Range",> 330 nM
"CCCC(=O)Nc1nnc(-c2cc(C(C)C)c(O)cc2O)n1-c1ccc2c(ccn2C)c1 [Compound 12a, N-(5-(2,4-dihydroxy-5-isopropylphenyl)-4-(1-methyl-1H-indol-5-yl)-4H-1,2,4-triazol-3-yl)butyramide]",IC50,"Hsp90; Table 7, read-out: IC50",1400 nM
"CC(C)c1cc(-c2nnc(O)n2-c2ccc(N3CCOCC3)nc2)c(O)cc1O [Compound 19d, 4-(5-hydroxy-4-(6-morpholinopyridin-3-yl)-4H-1,2,4-triazol-3-yl)-6-isopropylbenzene-1,3-diol]",IC50,"Hsp90; Table 9, read-out: IC50 Range",49 nM
